Source: patent publication US20070049564A1 (Wyeth, priority 2005, published 2007)
Values after ≈ are worked out from the molar mass of the structure shown. Read-outs that look alike come from different tables or passages of the source.

Assays:
S. pneumoniae+ GC 4465 = assay: MIC, broth microdilution; conditions: Streptococcus pneumoniae, S. pneumoniae+ GC 4465
S. typhimurium GC 2172 = assay: MIC, broth microdilution; conditions: Salmonella enterica, TYPHIMURIUM, S. typhimurium GC 2172
E. coli GC 2272 = assay: MIC, broth microdilution; conditions: Escherichia coli, GC2272, E. coli GC 2272
S. epidermidis GC 4935 = assay: MIC, broth microdilution; conditions: Staphylococcus epidermidis, GC4935, S. epidermidis GC 4935
S. aureus GC 1079 = assay: MIC, broth microdilution; conditions: Staphylococcus aureus, GC1079, S. aureus GC 1079
E. faecalis GC 2267 = assay: MIC, broth microdilution; conditions: Enterococcus faecalis, GC2267, E. faecalis GC 2267
E. coli GC 2232 = assay: MIC, broth microdilution; conditions: Escherichia coli, GC2232, E. coli GC 2232
S. aureus GC 1131 = assay: MIC, broth microdilution; conditions: Staphylococcus aureus, GC1131, S. aureus GC 1131
S. pneumoniae* GC 4465 = assay: MIC, broth microdilution; conditions: Streptococcus pneumoniae, S. pneumoniae* GC 4465
Method: (§1) Antimicrobial susceptibility testing. The in vitro activities of the antibiotics are determined by the broth microdilution method as recommended by the National Committee for Clinical Laboratory Standards (NCCLS) (1). Mueller-Hinton II broth (MHBII)(BBL Cockeysville, Md.) is the medium employed in the testing procedures. Microtiter plates containing serial dilutions of each antimicrobial agent are inoculated with each organism to yield the appropriate density (10^5 CFU/ml) in a 100 μl final volume. The plates are incubated for 18-22 hours at 35° C. in ambient air.
(§2) Representative compounds were first incubated in mouse serum for an hour prior to the in vitro testing against a panel of selected gram-positive and gram-negative bacteria strains. All compounds were also pre-incubated in water for an hour prior to testing as control. Representative compounds of Formula I were incubated in human serum prior to MIC determination.

E. faecium GC 2243 = assay: MIC, broth microdilution; conditions: Enterococcus faecium, GC2243, E. faecium GC 2243
Method: as §1
Representative compounds were first incubated in mouse serum for an hour prior to the in vitro testing against a panel of selected gram-positive and gram-negative bacteria strains. All compounds were also pre-incubated in water for an hour prior to testing as control.

S. aureus GC 6466 = assay: MIC, broth microdilution; conditions: Staphylococcus aureus, GC6466, S. aureus GC 6466
S. aureus GC 2216 = assay: MIC, broth microdilution; conditions: Staphylococcus aureus, GC2216, S. aureus GC 2216
E. faecium GC 4556 = assay: MIC, broth microdilution; conditions: Enterococcus faecium, GC4556, E. faecium GC 4556
Staph. aureus Smith = assay: In vivo activity (oral, iv; ED50) against Staph. aureus Smith in mice
Method: Representative examples of compounds of Formula I were tested for the oral efficacy using S. aureus Smith in mice.

E. coli GC 2234 = assay: MIC, broth microdilution; conditions: Escherichia coli, GC2234, E. coli GC 2234
E. coli GC 3226 = assay: MIC, broth microdilution; conditions: Escherichia coli, GC3226, E. coli GC 3226
Method: as §1, §2

E. coli GC 2231 = assay: MIC, broth microdilution; conditions: Escherichia coli, GC2231, E. coli GC 2231
S. pyogenes GC 4563 = assay: MIC, broth microdilution; conditions: Streptococcus pyogenes, GC4563, S. pyogenes GC 4563
c. albicans GC 3066 = assay: MIC, broth microdilution
S. aureus GC 6335 = assay: MIC, broth microdilution; conditions: Staphylococcus aureus, GC6335, S. aureus GC 6335
[1] = Staphylococcus aureus, in Mus musculus, po, read-out: ED50 Staph Smith SOD
[2] = iv, read-out: ED50 Staph Smith SIV
[3] = c. albicans GC 3066, Water pre-incubation

Row | Compound | MIC (S. pneumoniae+ GC 4465; Mouse Serum pre-incubation) | MIC (S. pneumoniae+ GC 4465; Water pre-incubation) | MIC (S. typhimurium GC 2172; Mouse Serum pre-incubation) | MIC (S. typhimurium GC 2172; Water pre-incubation) | MIC (E. coli GC 2272; Mouse Serum pre-incubation) | MIC (E. coli GC 2272; Water pre-incubation) | MIC (S. epidermidis GC 4935; Mouse Serum pre-incubation) | MIC (S. epidermidis GC 4935; Water pre-incubation) | MIC (S. aureus GC 1079; Mouse Serum pre-incubation) | MIC (S. aureus GC 1079; Water pre-incubation) | MIC (E. faecalis GC 2267; Mouse Serum pre-incubation) | MIC (E. faecalis GC 2267; Water pre-incubation) | MIC (E. coli GC 2232; Mouse Serum pre-incubation) | MIC (E. coli GC 2232; Water pre-incubation) | MIC (S. aureus GC 1131; Mouse Serum pre-incubation) | MIC (S. aureus GC 1131; Water pre-incubation) | MIC (S. pneumoniae* GC 4465; Mouse Serum pre-incubation) | MIC (S. pneumoniae* GC 4465; Water pre-incubation) | MIC (E. faecium GC 2243; Mouse Serum pre-incubation) | MIC (E. faecium GC 2243; Water pre-incubation) | further results
1 | CCCN(CC(=O)Nc1cc(N(C)C)c2c(c1O)C(=O)C1=C(O)[C@]3(O)C(=O)C(C(N)=O)=C(O)[C@@H](N(C)C)[C@@H]3C[C@@H]1C2)C(=O)OCOC(=O)C(C)(C)C [Example 9, ({[(2-{[(5aR,6aS,7S,10aS)-9-(aminocarbonyl)-4,7-bis(dimethylamino)-1,8,10a,11-tetrahydroxy-10,12-dioxo-5,5a,6,6a,7,10,10a,12-octahydrotetracen-2-yl]amino}-2-oxoethyl)(propyl)amino]carbonyl}oxy)methyl pivalate] | 2 µg/mL (≈ 2.74 µM) | 2 µg/mL (≈ 2.74 µM) | 8 µg/mL (≈ 11 µM) | > 64 µg/mL | 0.5 µg/mL (≈ 0.685 µM) | 8 µg/mL (≈ 11 µM) | 0.25 µg/mL (≈ 0.343 µM) | 1 µg/mL (≈ 1.37 µM) | 2 µg/mL (≈ 2.74 µM) | 1 µg/mL (≈ 1.37 µM) | 1 µg/mL (≈ 1.37 µM) | 2 µg/mL (≈ 2.74 µM) | 1 µg/mL (≈ 1.37 µM) | 8 µg/mL (≈ 11 µM) | < 0.06 µg/mL | 0.25 µg/mL (≈ 0.343 µM) | < 0.06 µg/mL | < 0.06 µg/mL | 0.25 µg/mL (≈ 0.343 µM) | 0.5 µg/mL (≈ 0.685 µM) | MIC (S. aureus GC 6466; Mouse Serum pre-incubation): 0.12 µg/mL (≈ 0.164 µM); MIC (S. aureus GC 6466; Water pre-incubation): 0.12 µg/mL (≈ 0.164 µM); MIC (S. aureus GC 2216; Mouse Serum pre-incubation): 0.25 µg/mL (≈ 0.343 µM); MIC (S. aureus GC 2216; Water pre-incubation): 0.5 µg/mL (≈ 0.685 µM); MIC (E. faecium GC 4556; Mouse Serum pre-incubation): 0.25 µg/mL (≈ 0.343 µM); MIC (E. faecium GC 4556; Water pre-incubation): 0.5 µg/mL (≈ 0.685 µM); ED50 (Staph. aureus Smith; [1]): 11.3 mg/kg; ED50 (Staph. aureus Smith; [2]): 0.32 mg/kg; MIC (E. coli GC 2234; Mouse Serum pre-incubation): 0.5 µg/mL (≈ 0.685 µM); MIC (E. coli GC 2234; Water pre-incubation): 8 µg/mL (≈ 11 µM); MIC (E. coli GC 3226; Mouse Serum pre-incubation): 2 µg/mL (≈ 2.74 µM); MIC (E. coli GC 3226; Water pre-incubation): 16 µg/mL (≈ 21.9 µM); MIC (E. coli GC 2231; Mouse Serum pre-incubation): 2 µg/mL (≈ 2.74 µM); MIC (E. coli GC 2231; Water pre-incubation): 64 µg/mL (≈ 87.7 µM); MIC (S. pyogenes GC 4563; Mouse Serum pre-incubation): < 0.06 µg/mL; MIC (S. pyogenes GC 4563; Water pre-incubation): < 0.06 µg/mL; MIC (c. albicans GC 3066; Candida albicans, GC3066): > 64 µg/mL; MIC (c. albicans GC 3066; [3]): >64 UG/ML; MIC (S. aureus GC 6335; Mouse Serum pre-incubation): 0.25 µg/mL (≈ 0.343 µM); MIC (S. aureus GC 6335; Water pre-incubation): 0.5 µg/mL (≈ 0.685 µM)
2 | CCCN(CC(=O)Nc1cc(N(C)C)c2c(c1O)C(=O)C1=C(O)[C@]3(O)C(=O)C(C(N)=O)=C(O)[C@@H](N(C)C)[C@@H]3C[C@@H]1C2)C(=O)OCOC(=O)C(C)C [Example 10, ({[(2-{[(5aR,6aS,7S,10aS)-9-(aminocarbonyl)-4,7-bis(dimethylamino)-1,8,10a,11-tetrahydroxy-10,12-dioxo-5,5a,6,6a,7,10,10a,12-octahydrotetracen-2-yl]amino}-2-oxoethyl)(propyl)amino]carbonyl}oxy)methyl 2-methylpropanoate] | 1 µg/mL (≈ 1.4 µM) | 1 µg/mL (≈ 1.4 µM) | 4 µg/mL (≈ 5.59 µM) | > 64 µg/mL | 0.5 µg/mL (≈ 0.699 µM) | 8 µg/mL (≈ 11.2 µM) | 0.5 µg/mL (≈ 0.699 µM) | 1 µg/mL (≈ 1.4 µM) | 0.5 µg/mL (≈ 0.699 µM) | 1 µg/mL (≈ 1.4 µM) | 1 µg/mL (≈ 1.4 µM) | 2 µg/mL (≈ 2.79 µM) | 0.5 µg/mL (≈ 0.699 µM) | 8 µg/mL (≈ 11.2 µM) | 0.12 µg/mL (≈ 0.168 µM) | 0.12 µg/mL (≈ 0.168 µM) | < 0.06 µg/mL | < 0.06 µg/mL | < 0.06 µg/mL | 0.12 µg/mL (≈ 0.168 µM) | MIC (S. aureus GC 6466; Mouse Serum pre-incubation): 0.12 µg/mL (≈ 0.168 µM); MIC (S. aureus GC 6466; Water pre-incubation): 0.12 µg/mL (≈ 0.168 µM); MIC (S. aureus GC 2216; Mouse Serum pre-incubation): 0.25 µg/mL (≈ 0.349 µM); MIC (S. aureus GC 2216; Water pre-incubation): 0.5 µg/mL (≈ 0.699 µM); MIC (E. faecium GC 4556; Mouse Serum pre-incubation): 0.25 µg/mL (≈ 0.349 µM); MIC (E. faecium GC 4556; Water pre-incubation): 0.5 µg/mL (≈ 0.699 µM); ED50 (Staph. aureus Smith; [1]): 13.6 mg/kg; ED50 (Staph. aureus Smith; [2]): 0.36 mg/kg; MIC (E. coli GC 2234; Mouse Serum pre-incubation): 0.5 µg/mL (≈ 0.699 µM); MIC (E. coli GC 2234; Water pre-incubation): 8 µg/mL (≈ 11.2 µM); MIC (E. coli GC 3226; Mouse Serum pre-incubation): 0.5 µg/mL (≈ 0.699 µM); MIC (E. coli GC 3226; Water pre-incubation): 16 µg/mL (≈ 22.4 µM); MIC (E. coli GC 2231; Mouse Serum pre-incubation): 2 µg/mL (≈ 2.79 µM); MIC (E. coli GC 2231; Water pre-incubation): 32 µg/mL (≈ 44.7 µM); MIC (S. pyogenes GC 4563; Mouse Serum pre-incubation): < 0.06 µg/mL; MIC (S. pyogenes GC 4563; Water pre-incubation): < 0.06 µg/mL; MIC (c. albicans GC 3066; Candida albicans, GC3066): > 64 µg/mL; MIC (c. albicans GC 3066; [3]): >64 UG/ML; MIC (S. aureus GC 6335; Mouse Serum pre-incubation): 0.25 µg/mL (≈ 0.349 µM); MIC (S. aureus GC 6335; Water pre-incubation): 0.5 µg/mL (≈ 0.699 µM)
